# Data reported in ChEMBL document CHEMBL1150494, “Inhibitory effect on HT-1080 tumor cell invasion in vitro using 9-(2-hydroxyethyl)adenine 2-phosphates” (1997).
# How the values were obtained:
# [1] = biological target: Matrix metalloproteinase-9 (Homo sapiens) (UniProt P14780); test: Inhibition of collagen IV degradation by matrix metalloprotease-9 at 10 uM
# HT-1080 [2] = test: In vitro inhibitory activity against HT1080 tumor cell invasion using Matrigel (MG) at a concentration of 10 uM; type: functional, Homo sapiens
# [3] = biological target: Matrix metalloproteinase-9 (Homo sapiens) (UniProt P14780); test: Inhibition of collagen IV degradation by matrix metalloprotease-9 at 100 uM
# HT-1080 [4] = test: In vitro inhibitory activity against HT1080 tumor cell invasion using Matrigel (MG) at a concentration of 100 uM; type: functional, Homo sapiens
# Matrix metalloproteinase-9 (Homo sapiens), sequence (P14780 whole entry): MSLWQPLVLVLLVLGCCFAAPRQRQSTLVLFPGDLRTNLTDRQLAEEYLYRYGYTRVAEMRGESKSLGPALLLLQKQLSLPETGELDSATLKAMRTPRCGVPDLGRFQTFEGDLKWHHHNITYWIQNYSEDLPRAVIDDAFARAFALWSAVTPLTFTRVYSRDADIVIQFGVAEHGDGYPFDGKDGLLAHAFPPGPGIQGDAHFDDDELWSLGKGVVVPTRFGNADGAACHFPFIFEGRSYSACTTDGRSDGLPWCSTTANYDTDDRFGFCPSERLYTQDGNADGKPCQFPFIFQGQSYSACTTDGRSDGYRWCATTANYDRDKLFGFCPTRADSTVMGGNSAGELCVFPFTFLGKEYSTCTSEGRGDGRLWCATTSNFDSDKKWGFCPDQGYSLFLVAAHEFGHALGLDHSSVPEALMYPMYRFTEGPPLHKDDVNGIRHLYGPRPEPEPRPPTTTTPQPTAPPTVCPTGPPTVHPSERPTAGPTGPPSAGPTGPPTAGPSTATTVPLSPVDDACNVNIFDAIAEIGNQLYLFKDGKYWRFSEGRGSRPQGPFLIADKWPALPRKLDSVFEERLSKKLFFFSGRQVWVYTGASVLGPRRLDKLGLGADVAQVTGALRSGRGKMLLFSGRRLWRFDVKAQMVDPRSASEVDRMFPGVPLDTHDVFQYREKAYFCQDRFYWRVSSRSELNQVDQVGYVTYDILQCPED
Inhibition ratio [1] [%],Inhibition ratio [3] [%],Compound,Inhibition ratio (HT-1080 [2]) [%],Inhibition ratio (HT-1080 [4]) [%]
53,69,Nc1ncnc2c1ncn2CCOP(=O)(O)OP(=O)(O)OP(=O)(O)O,~35,~36
23,41,Nc1ncnc2c1nc(Br)n2CCOP(=O)(O)O,~23,~41
2,18,Nc1ncnc2c1ncn2CCO,~2,~50
32,57,Nc1ncnc2c1ncn2CCOP(=O)(O)O,46,53
46,55,CNc1ncnc2c1ncn2CCOP(=O)(O)O,~46,~54
,12,O=P(O)(O)OCCn1cnc2c(Cl)ncnc21,,~12
